{
  "source": "patent US6479472B1",
  "about": "“Methods of using therapeutic phospholipid derivatives” (Asta Medica Aktiengesellschaft, priority 1993, dated 2002)",
  "key": {"[1]": {"test_system": "human KB tumors (ATCC CCL 17 KB, human epidermoid larynx tumors)", "assay": "KB tumor model, subcutaneous implants in nude mice, oral treatment (Experiment 2)", "format": "in vivo, female nu/nu mice (strain NMRI)", "conditions": "for efficacy of standard cytostatics: KB implanted tumors in test mice", "excerpt": "(§1) The inventors used female, nu/nu mice (strain NMRI) aged 9-10 weeks and weighing 21-29 g (Breeder: Bomholtgard Breeding and Research Center, DK-8680 Ry) for testing. Tumor fragments consisting of the human KB tumors (ATCC; Rockville, Md.; cell line ATCC CCL 17 KB, human epidermoid larynx tumors), and having an average diameter of 2 mm, were implanted subcutaneously into the right side of the test mice.\nThe test mice were randomly assigned to various treatment and control groups.\nTumor weights were estimated by first palpating the tumors and then comparing the volumes of the palpated tumors with the volumes of prefabricated plasticine models according to Druckrey, et al., “Experimentelle Beiträge zum Dosis-Problem in der Krebs-Chemotherapie und zur Wirkungsweise von Endoxan, Dtsch. Med. Wschr., 88:651 (1963). After determining the weight of the models, the inventors converted each of these values to a tumor weight by determining the relationship between the specific weight of each tumor tissue and its corresponding plasticine model. To ensure the accuracy of this method, the inventors simultaneously estimated the weights of 99 individual tumors by both palpation and direct weighing of extirpated tumors.\nOnce the KB tumor implants attained a weight of approximately 0.2 g, the inventors commenced therapy with the compounds of Examples 1, 8, 17, 21, 22, 24 and 25 of the subject application. Each compound was dissolved in 0.9% NaCl and administered per os (stomach tube) in accordance with the regimen schedules detailed in Graphs 10-17 hereinbelow. The control mice were treated with the vehicle alone.\nDuring the observation period, tumor weights were determined for each of the test mice at regular intervals.\nThe test mice were all housed under specific pathogen free (SPF) conditions with unrestricted water supply (acidified to pH 3) and standard pellet lab chow (Altromin 1324)."}, "[2]": {"test_system": "DMBA-induced mammary carcinomas / KB implanted tumors", "assay": "Summary statement on Experiments 1 and 2 (DMBA and KB tumor models, model not told per compound)", "format": "in vivo, rats / mice", "conditions": "for tumor remission: model and regimen not given; for GII (growth inhibition index): specified dosage regimens, model not given, GII>100% = tumor regression", "protocol": "The inventors induced mammary carcinomas in female Sprague-Dawley rats (Mollegaard Breeding Center, DK-4236 Ejby) aged 50 days by administering a single dose of 20 mg 7,12-dimethylbenz(a)anthracene (DMBA) dissolved in 1 ml of olive oil to each rat by gavage. The first tumor appeared approximately one month after feeding the subject rats with DMBA.\nas §1\nResults from Experiments 1 and 2 were calculated and expressed in accordance with the growth inhibition index (GII) described in Voegeli, et al., “Selective cytostatic activity of Hexadecylphosphocholine against tumor cells in vitro leads to the establishment of an in vivo screening system for phospholipid analogues,” Int. J. Oncol., 2:161 (1993). The GII values from Experiments 1 and 2 are detailed in Table 1 below."}, "[3]": {"test_system": "DMBA-induced mammary carcinomas", "assay": "DMBA-induced mammary carcinoma model, oral treatment, tumor weight by palpation (Experiment 1)", "format": "in vivo, female Sprague-Dawley rats", "conditions": "for efficacy of standard cytostatics: DMBA-induced mammary carcinomas in test rats", "excerpt": "The first tumor appeared approximately one month after feeding the subject rats with DMBA. Tumor weights were estimated on the basis of tumor volume. This was accomplished by palpating tumors and comparing the volumes of the palpated tumors with the volumes of prefabricated plasticine models in the manner taught by Druckrey, et al., “Experimentelle Beiträge zum Dosis-Problem in der Krebs-Chemotherapie und zur Wirkungsweise von Endoxan, Dtsch. Med. Wschr., 88:651 (1963). Each of the relevant plasticine models was then weighed and converted to a tumor weight by means of a factor reflecting the relationship between the specific weight of each tumor tissue and its corresponding plasticine model. […] A statistical evaluation of the resulting data indicated a correlation coefficient of 0.98. Test rats having a total tumor weight of approximately 1 g were randomly allocated amongst various dosage and control groups, each group having a total of 6-7 rats. In this way, the inventors were able to ensure an approximately equal distribution amongst the experimental groups of tumors having different latencies, total tumor weight and numbers of tumor nodes. […] The control group was given tap water in accordance with the same schedule. […] During the observation period, tumor weights were determined for each of the test rats at regular intervals. The test rats were all housed under specific pathogen free (SPF) conditions with unrestricted water supply (acidified to pH 3) and standard pellet lab chow (Altromin 1324). […] J. Oncol., 2:161 (1993)."}, "[4]": {"conditions": "2 × 316 mg/kg per os, treatment day 0, 7"}, "[5]": {"conditions": "4 × 100 mg/kg per os, treatment day 0, 3, 7, 10, >100 = tumor regression"}},
  "note": "Structures can show the parent of a compound that is named as a salt.",
  "data": [
    {"smiles": "CCCCCCCCCCCCCCCCCCOP(=O)([O-])OC1CC2CCC(C1)[N+]2(C)C", "note": "(centres unmarked) [Example 25, Octadecyl 1,1-dimethyltropanio-4-yl phosphate]", "values": [
      {"measurement": "KB (G.I.I. %)", "setting": "[1]; [4]", "value": 110, "unit": "%"},
      {"measurement": "tumor remission", "setting": "[2]", "value": "complete disappearance of tumors"}
    ]},
    {"smiles": "CCCCCCCCCCCCCCCCOP(=O)([O-])OCC1CCC[N+]1(C)C", "note": "(centres unmarked) [Example 20, Hexadecyl (1,1-dimethylpyrrolidinio-2-yl)methyl phosphate]", "values": [
      {"measurement": "DMBA (G.I.I. %)", "setting": "[3]; [5]", "value": 99, "unit": "%"},
      {"measurement": "GII (growth inhibition index)", "setting": "[2]", "value": 100, "unit": "%"}
    ]},
    {"smiles": "CCCCCCCCCCCCCCCCCCOP(=O)([O-])OCC1CCC[N+](C)(C)C1", "note": "(centres unmarked) [Example 10, Octadecyl (1,1-dimethylpiperidinio-3-yl)methyl phosphate]", "values": [
      {"measurement": "KB (G.I.I. %)", "setting": "[1]; [4]", "value": 99, "unit": "%"},
      {"measurement": "GII (growth inhibition index)", "setting": "[2]", "value": 100, "unit": "%"}
    ]},
    {"smiles": "N.N.[Cl][Pt][Cl]", "note": "[Cisplatin, reference compound]", "values": [
      {"measurement": "efficacy of standard cytostatics", "setting": "[3]", "value": "relatively ineffective"},
      {"measurement": "efficacy of standard cytostatics", "setting": "[1]", "value": "relatively ineffective"}
    ]},
    {"smiles": "CCCCCCCCCCCCCCCCCCOP(=O)([O-])OC1CC[N+](C)(C)C1", "note": "(centres unmarked) [Example 17, Octadecyl 1,1-dimethylpyrrolidinio-3-yl phosphate]", "values": [
      {"measurement": "KB (G.I.I. %)", "setting": "[1]; 2 × 100 mg/kg per os, treatment day 0, 7", "value": 90, "unit": "%"}
    ]},
    {"smiles": "CCCCCCCCCCCCCCCCCCOP(=O)([O-])OC1CC[N+](C)(C)CC1", "note": "[Example 1, 4-(((Octadecyloxy)hydroxyphosphenyl)oxy)-1,1-dimethylpiperidinium hydroxide internal salt]", "values": [
      {"measurement": "DMBA (G.I.I. %)", "setting": "[3]; [5]", "value": 119, "unit": "%"},
      {"measurement": "DMBA (G.I.I. %)", "setting": "[3]; 14 × 31.6 mg/kg per os, treatment day 0-13", "value": 108, "unit": "%"},
      {"measurement": "DMBA (G.I.I. %)", "setting": "[3]; 28 × 68.1 mg/kg per os, 'large tumors', treatment day 0-27", "value": 137, "unit": "%"},
      {"measurement": "KB (G.I.I. %)", "setting": "[1]; 1 × 511 mg/kg per os, treatment day 0", "value": 103, "unit": "%"},
      {"measurement": "tumor remission", "setting": "[2]", "value": "complete disappearance of tumors"}
    ]},
    {"smiles": "CCCCCCCCCCCCCCCCCCOP(=O)([O-])OCC1CCC[N+]1(C)C", "note": "(centres unmarked) [Example 21, Octadecyl (1,1-dimethylpyrrolidinio-2-yl)methyl phosphate]", "values": [
      {"measurement": "DMBA (G.I.I. %)", "setting": "[3]; [5]", "value": 116, "unit": "%"},
      {"measurement": "KB (G.I.I. %)", "setting": "[1]; [4]", "value": 106, "unit": "%"},
      {"measurement": "tumor remission", "setting": "[2]", "value": "complete disappearance of tumors"}
    ]},
    {"smiles": "O=P1(N(CCCl)CCCl)NCCCO1", "note": "(centres unmarked) [Cyclophosphamide, reference compound]", "values": [
      {"measurement": "efficacy of standard cytostatics", "setting": "[3]", "value": "relatively ineffective"},
      {"measurement": "efficacy of standard cytostatics", "setting": "[1]", "value": "relatively ineffective"}
    ]},
    {"smiles": "CCCCCCCCCCCCCCCCCCOP(=O)([O-])OC1CCC[N+](C)(C)CC1", "note": "(centres unmarked) [Example 13, Octadecyl 1,1-dimethylhexahydroazepinio-4-yl phosphate]", "values": [
      {"measurement": "DMBA (G.I.I. %)", "setting": "[3]; 1 × 511 mg/kg per os, 'large tumors', treatment day 0", "value": 145, "unit": "%"},
      {"measurement": "DMBA (G.I.I. %)", "setting": "[3]; 14 × 46.4 mg/kg per os, treatment day 0-13", "value": 129, "unit": "%"}
    ]},
    {"smiles": "CCCCCCCCCCCCCCCCOP(=O)([O-])OC1C[N+]2(C)CCC1CC2", "note": "(centres unmarked) [Example 22, Hexadecyl 1-methylquinuclidinio-3-yl phosphate]", "values": [
      {"measurement": "DMBA (G.I.I. %)", "setting": "[3]; [5]", "value": 105, "unit": "%"},
      {"measurement": "KB (G.I.I. %)", "setting": "[1]; 2 × 383 mg/kg per os, treatment day 0, 7", "value": 102, "unit": "%"}
    ]},
    {"smiles": "COc1cccc2c1C(=O)c1c(O)c3c(c(O)c1C2=O)C[C@@](O)(C(=O)CO)C[C@@H]3O[C@H]1C[C@H](N)[C@H](O)[C@H](C)O1", "note": "[Adriamycin, reference compound]", "values": [
      {"measurement": "efficacy of standard cytostatics", "setting": "[3]", "value": "relatively ineffective"},
      {"measurement": "efficacy of standard cytostatics", "setting": "[1]", "value": "relatively ineffective"}
    ]},
    {"smiles": "CCCCCCCCCCCCCCCCOP(=O)([O-])OC1CC2CCC(C1)[N+]2(C)C", "note": "(centres unmarked) [Example 24, Hexadecyl 1,1-dimethyltropanio-4-yl phosphate]", "values": [
      {"measurement": "KB (G.I.I. %)", "setting": "[1]; 2 × 215 mg/kg per os, treatment day 0, 7", "value": 108, "unit": "%"}
    ]},
    {"smiles": "CCCCCCCCCCCCCCCCCCOP(=O)([O-])OCC1CCCC[N+]1(C)C", "note": "(centres unmarked) [Example 8, Octadecyl (1,1-dimethylpiperidinio-2-yl)methyl phosphate]", "values": [
      {"measurement": "DMBA (G.I.I. %)", "setting": "[3]; [5]", "value": 125, "unit": "%"},
      {"measurement": "KB (G.I.I. %)", "setting": "[1]; [4]", "value": 100, "unit": "%"},
      {"measurement": "GII (growth inhibition index)", "setting": "[2]", "value": 100, "unit": "%"}
    ]}
  ]
}
